Patent US20100016366A1, “Novel Compounds Active as Muscarinic Receptor Antagonists” (priority 2008, published 2010)

Columns and labels:
[1] = biological target: T1, human muscarinic M3 receptor (Homo sapiens, UniProt P20309); assay: hM3 competition binding assay (3H-NMS, CHO cell membranes); details: CHO cell membranes expressing human M3; 3H-NMS at 5×KD, 24 hr at RT; IC50 corrected by Cheng-Prussoff
T1 construct: expressed in transfected cells; host or cells: CHO (CHO-K1) cells
Protocol: Binding Affinity Assessment at the Human Recombinant M3 Muscarinic Receptor
Cell Pellets from CHO (Chinese Hamster Ovary) cells recombinantly expressing the human muscarinic M3 receptor were homogenised in 20 mM HEPES (pH7.4) and centrifuged at 48000×g for 20 min at 4° C. The pellet was re-suspended in buffer and the homogenisation and centrifugation steps repeated. The resulting pellet was re-suspended in 1 ml buffer per 1 ml original packed cell volume and the homogenisation step repeated. Protein estimation was carried out on the suspension and 1 ml aliquots of ˜1 mg/ml frozen at −80° C.
hM3 Competition Binding Assay Protocol
Membranes (5 µg/well) were incubated with ^3H-NMS (at a concentration 5×KD) plus/minus test compound for 24 hr at RT (room temperature) in a 1 ml polystyrene 96-well deep well block. The final assay volume was 200 µl, comprising of: 20 µl plus/minus test compound; 20 µl ^3H-NMS (Perkin Elmer NEN 636) and 160 µl membrane solution. Total Binding was defined with 0.1% DMSO; Non-Specific Binding was defined with 1 µM Atropine. Assay buffer was 20 mM Hepes (pH 7.4).
Once all assay components were added, plates were covered and incubated at room temperature for 24 hrs with shaking. The assay was terminated by rapidly filtering through GF/B Unifilter plates pre-soaked with 0.5% polyethylenimine, using a Packard filtermate harvester, the filter plate was then washed with 3×1 ml 4° C. assay buffer. The filter plates were dried at 45° C. for 1 hour. The bottoms of the filter plates were sealed and 50 µl/well of Microscint ‘0’ added, the top of the plates were sealed with a Topseal. Following 90 mins, the plates were read on an NXT Topcount (1 minute read time per well).
The resulting data was expressed as a percentage of the specific binding (Specific binding=Total binding−Non-Specific Binding). % specific binding versus test compound concentration was plotted to determine an IC50 from a sigmoid curve using an in-house data analysis programme. IC50 values corrected to Ki values by applying the Cheng-Prussoff equation: […]
where IC50 is the concentration of unlabelled drug which inhibits by 50% the specific radioligand binding. [L] is the free radioligand concentrations and KD and Ki are the equilibrium dissociation constants of the radioligand and unlabelled drug respectively.

[2] = biological target: T1, human muscarinic M3 receptor; assay: Cell based potency assessment, hM3 β-lactamase assay (CHO cell β-lactamase); details: CHO cells recombinantly expressing human M3, NFAT-β-lactamase reporter; inhibition of 80 nM carbamyl choline signal, 4 h; IC50 converted by Cheng-Prusoff
Protocol: Cell BASED POTENCY ASSESSMENT at the Human Recombinant M3 Muscarinic Receptor
M3 potency was determined in CHO-K1 cells transfected with the NFAT-Betalactamase gene. CHO (Chinese Hamster Ovary) cells recombinantly expressing the human muscarinic M3 receptor were transfected with the NFAT_β-Lac_Zeo plasmid. Cells were grown in DMEM with Glutamax-1, supplemented with 25 mM HEPES (Life Technologies 32430-027), containing 10% FCS (Foetal Calf Serum; Sigma F-7524), […] Sodium pyruvate (Sigma S-8636), NEAA (non-Essential Amino Acids; Invitrogen 11140-035) and 200 μg/ml Zeocin (Invitrogen R250-01).
hM3 β-Lactamase Assay Protocol
Cells were harvested for assay when they reached 80-90% confluency using enzyme free cell Dissociation Solution (Life technologies 13151-014) incubated with the cells for 5 min at 37° C. in an atmosphere containing 5% CO2. Detached cells were collected in warmed growth media and centrifuged at 2000 rpm for 10 min, washed in PBS (Phosphate Buffered Saline; Life Technologies 14190-094) and centrifuged again as just described. The cells were re-suspended at 2×10^5 cells/ml in growth medium (composition as described above). 20 μl of this cell suspension was added to each well of a 384 well black clear bottomed plate (Greiner Bio One 781091-PFI). The assay buffer used was PBS supplemented with 0.05% Pluronic F-127 (Sigma 9003-11-6) and 2.5% DMSO. Muscarinic M3 receptor signalling was stimulated using 80 nM carbamyl choline (Aldrich N240-9) incubated with the cells for 4 h at 37° C./5% CO2 and monitored at the end of the incubation period using a Tecan SpectraFluor+plate reader (λ−excitation 405 nm, emission 450 nm and 503 nm). M3 receptor antagonists under test were added to the assay at the beginning of the 4 h incubation period and compound activity measured as the concentration dependent inhibition of the carbamyl choline induced signal. Inhibition curves were plotted and IC50 values generated using a 4-parameter sigmoid fit and converted to Ki values using the Cheng-Prusoff correction and the KD value for carbamyl choline in the assay.

T1 sequence (P20309 whole entry): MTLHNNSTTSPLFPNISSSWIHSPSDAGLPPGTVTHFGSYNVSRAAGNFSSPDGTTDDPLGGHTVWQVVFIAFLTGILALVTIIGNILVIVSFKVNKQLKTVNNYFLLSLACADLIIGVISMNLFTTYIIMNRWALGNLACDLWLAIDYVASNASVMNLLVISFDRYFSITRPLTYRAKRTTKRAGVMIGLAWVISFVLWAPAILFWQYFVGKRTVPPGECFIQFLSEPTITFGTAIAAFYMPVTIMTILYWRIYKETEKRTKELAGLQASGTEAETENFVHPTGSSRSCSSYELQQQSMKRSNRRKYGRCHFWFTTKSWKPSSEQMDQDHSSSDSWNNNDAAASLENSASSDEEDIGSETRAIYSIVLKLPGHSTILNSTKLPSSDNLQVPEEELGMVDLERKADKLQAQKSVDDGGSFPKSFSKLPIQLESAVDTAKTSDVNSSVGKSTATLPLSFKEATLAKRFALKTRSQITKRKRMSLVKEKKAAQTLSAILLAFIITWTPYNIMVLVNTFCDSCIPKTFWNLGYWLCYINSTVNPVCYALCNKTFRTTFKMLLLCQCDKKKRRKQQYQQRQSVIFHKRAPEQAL

| SMILES | Ki [1] [nM] | Ki [2] [nM] |
| --- | --- | --- |
| O=C(Nc1ccccc1-c1ccccc1)OC1CCN(CCCCCCCCCNC(=O)c2ccc(O)c(Cl)c2)CC1 [Example 1, Biphenyl-2-yl-carbamic acid 1-[9-(3-chloro-4-hydroxy-benzoylamino)-nonyl]-piperidin-4-yl ester] | 1.6 | 0.0697 |
| O=C(Nc1ccccc1-c1ccccc1)OC1CCN(CCCCCCCCCNCc2cccc(O)c2F)CC1 [Example 2, Biphenyl-2-yl-carbamic acid 1-[9-(2-fluoro-3-hydroxy-benzylamino)-nonyl]-piperidin-4-yl ester] | 1.05 | 0.84 |
| O=C(Nc1ccccc1-c1ccccc1)OC1CCN(CCCCCCCCCNCc2cc(F)cc(Cl)c2O)CC1 [Example 3, Biphenyl-2-yl-carbamic acid 1-[9-(3-chloro-5-fluoro-2-hydroxy-benzylamino)-nonyl]-piperidin-4-yl ester] | 2.33 | 0.779 |
| O=C(Cc1ccc(O)c(Cl)c1)NCCCCCCCCCN1CCC(OC(=O)Nc2ccccc2-c2ccccc2)CC1 [Example 4, Biphenyl-2-yl-carbamic acid 1-{9-[2-(3-chloro-4-hydroxy-phenyl)-acetylamino]-nonyl}-piperidin-4-yl ester] | 1.19 | 0.0415 |
| O=C(Nc1ccccc1-c1ccccc1)OC1CCN(CCCCCCCCCNCc2cccc(O)c2Cl)CC1 [Example 5, Biphenyl-2-yl-carbamic acid 1-[9-(2-chloro-3-hydroxy-benzylamino)-nonyl]-piperidin-4-yl ester] | 0.521 | 0.894 |
| O=C(Nc1ccccc1-c1ccccc1)OC1CCN(CCCCCCCCCNC(=O)c2ccc(O)c(F)c2)CC1 [Example 6, Biphenyl-2-yl-carbamic acid 1-[9-(3-fluoro-4-hydroxy-benzoylamino)-nonyl]-piperidin-4-yl ester] | 0.778 | 0.222 |
| O=C(Nc1ccccc1-c1ccccc1)OC1CCN(CCCCCCCCCNC(=O)c2ccc(F)c(O)c2)CC1 [Example 7, Biphenyl-2-yl-carbamic acid 1-[9-(4-fluoro-3-hydroxy-benzoylamino)-nonyl]-piperidin-4-yl ester] | 0.997 | 1.36 |
| O=C(Nc1ccccc1-c1ccccc1)OC1CCN(CCCCCCCCCNC(=O)c2cccc(F)c2O)CC1 [Example 8, Biphenyl-2-yl-carbamic acid 1-[9-(3-fluoro-2-hydroxy-benzoylamino)-nonyl]-piperidin-4-yl ester] | 4.81 | 2.68 |
| O=C(Nc1ccccc1-c1ccccc1)OC1CCN(CCCCCCCCCNC(=O)c2cc(F)ccc2O)CC1 [Example 9, Biphenyl-2-yl-carbamic acid 1-[9-(5-fluoro-2-hydroxy-benzoylamino)-nonyl]-piperidin-4-yl ester] | – | 8.81 |
| O=C(Cc1ccc(O)c(F)c1)NCCCCCCCCCN1CCC(OC(=O)Nc2ccccc2-c2ccccc2)CC1 [Example 10, Biphenyl-2-yl-carbamic acid 1-{9-[2-(3-fluoro-4-hydroxy-phenyl)-acetylamino]-nonyl}-piperidin-4-yl ester] | 1.07 | 0.803 |
| O=C(Nc1ccccc1-c1ccccc1)OC1CCN(CCCCCCCCCNC(=O)c2cccc(Cl)c2O)CC1 [Example 11, Biphenyl-2-yl-carbamic acid 1-[9-(3-chloro-2-hydroxy-benzoylamino)-nonyl]-piperidin-4-yl ester] | 2.24 | 8.15 |
| O=C(Nc1ccccc1-c1ccccc1)OC1CCN(CCCCCCCCCNC(=O)c2ccc(F)c(F)c2O)CC1 [Example 12, Biphenyl-2-yl-carbamic acid 1-[9-(3,4-difluoro-2-hydroxy-benzoylamino)-nonyl]-piperidin-4-yl ester] | – | 7.32 |
| O=C(Nc1ccccc1-c1ccccc1)OC1CCN(CCCCCCCCCNC(=O)c2cc(Cl)cc(Cl)c2O)CC1 [Example 13, Biphenyl-2-yl-carbamic acid 1-[9-(3,5-dichloro-2-hydroxy-benzoylamino)-nonyl]-piperidin-4-yl ester] | – | 18 |
| O=C(Nc1ccccc1-c1ccccc1)OC1CCN(CCCCCCCCCNC(=O)c2ccc(Cl)cc2O)CC1 [Example 14, Biphenyl-2-yl-carbamic acid 1-[9-(4-chloro-2-hydroxy-benzoylamino)-nonyl]-piperidin-4-yl ester] | – | 13.9 |
| CN(CCCCCCCCCN1CCC(OC(=O)Nc2ccccc2-c2ccccc2)CC1)C(=O)Cc1ccc(O)c(Cl)c1 [Example 15, Biphenyl-2-yl-carbamic acid 1-(9-{[2-(3-chloro-4-hydroxy-phenyl)-acetyl]-methyl-amino}-nonyl)-piperidin-4-yl ester] | 2.37 | 0.396 |
| CN(CCCCCCCCCN1CCC(OC(=O)Nc2ccccc2-c2ccccc2)CC1)C(=O)c1ccc(F)c(O)c1 [Example 16, Biphenyl-2-yl-carbamic acid 1-{9-[(4-fluoro-3-hydroxy-benzoyl)-methyl-amino]-nonyl}-piperidin-4-yl ester] | 2.98 | 0.389 |
| CN(CCCCCCCCCN1CCC(OC(=O)Nc2ccccc2-c2ccccc2)CC1)C(=O)c1ccc(O)c(Cl)c1 [Example 17, Biphenyl-2-yl-carbamic acid 1-{9-[(3-chloro-4-hydroxy-benzoyl)-methyl-amino]-nonyl}-piperidin-4-yl ester] | 2.15 | 0.25 |
| CN(CCCCCCCCCN1CCC(OC(=O)Nc2ccccc2-c2ccccc2)CC1)C(=O)Cc1ccc(O)c(F)c1 [Example 18, Biphenyl-2-yl-carbamic acid 1-(9-{[2-(3-fluoro-4-hydroxy-phenyl)-acetyl]-methyl-amino}-nonyl)-piperidin-4-yl ester] | 2.29 | 0.353 |
| O=C(Nc1ccccc1-c1ccccc1)OC1CCN(CCCCCCCCCNC(=O)c2cc(Cl)ccc2O)CC1 [Example 24, Biphenyl-2-yl-carbamic acid 1-[9-(2-hydroxy-5-chloro-benzoylamino)-nonyl]-piperidin-4-yl ester] | – | 17 |
| O=C(Nc1ccccc1-c1ccccc1)OC1CCN(CCCCCCCCCNC(=O)c2ccc(F)cc2O)CC1 [Example 26, Biphenyl-2-yl-carbamic acid 1-[9-(2-hydroxy-4-fluoro-benzoylamino)-nonyl]-piperidin-4-yl ester] | – | 4.51 |
| CN(CCCCCCCCCN1CCC(OC(=O)Nc2ccccc2-c2ccccc2)CC1)C(=O)c1cc(F)ccc1O [Example 67, Biphenyl-2-yl-carbamic acid 1-{9-[(5-fluoro-2-hydroxy-benzoyl)-methyl-amino]-nonyl}-piperidin-4-yl ester] | 0.828 | – |
| CN(CCCCCCCCCN1CCC(OC(=O)Nc2ccccc2-c2ccccc2)CC1)C(=O)c1cc(Cl)ccc1O [Example 68, Biphenyl-2-yl-carbamic acid 1-{9-[(5-chloro-2-hydroxy-benzoyl)-methyl-amino]-nonyl}-piperidin-4-yl ester] | 2.27 | – |
| CN(CCCCCCCCCN1CCC(OC(=O)Nc2ccccc2-c2ccccc2)CC1)C(=O)c1ccc(O)c(F)c1 [Example 69, Biphenyl-2-yl-carbamic acid 1-{9-[(3-fluoro-4-hydroxy-benzoyl)-methyl-amino]-nonyl}-piperidin-4-yl ester] | 0.615 | – |
